From US9732075B2, “Benzimidazole-proline derivatives” (IDORSIA PHARMACEUTICALS LTD, priority 2012, dated 2017)

What was measured:
human orexin-2 receptor = human orexin-2 receptor (Homo sapiens (Human), UniProt O43614); assay: In vitro assay: intracellular calcium measurements (FLIPR), antagonistic activity; format: cell-based; conditions: CHO cells expressing human orexin-2 receptor, orexin-A agonist, geometric mean, read-out: IC50 Ox2
Summary of the method: (§1)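 hOX1R/hOX2R CHO cells, fluo-4 AM + 5 mM probenecid, 50 min 37 °C then 30 min RT. Cpd 120 min, then orexin-A 3 nM final; FLIPR peak height vs vehicle. IC50, geometric mean of repeats.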

human orexin-1 receptor = human orexin-1 receptor (Homo sapiens (Human), UniProt O43613); assay: as above; format: cell-based; conditions: CHO cells expressing human orexin-1 receptor, orexin-A agonist, geometric mean, read-out: IC50 Ox1
Summary of the method: as §1

human orexin-1 receptor, sequence (O43613 whole entry): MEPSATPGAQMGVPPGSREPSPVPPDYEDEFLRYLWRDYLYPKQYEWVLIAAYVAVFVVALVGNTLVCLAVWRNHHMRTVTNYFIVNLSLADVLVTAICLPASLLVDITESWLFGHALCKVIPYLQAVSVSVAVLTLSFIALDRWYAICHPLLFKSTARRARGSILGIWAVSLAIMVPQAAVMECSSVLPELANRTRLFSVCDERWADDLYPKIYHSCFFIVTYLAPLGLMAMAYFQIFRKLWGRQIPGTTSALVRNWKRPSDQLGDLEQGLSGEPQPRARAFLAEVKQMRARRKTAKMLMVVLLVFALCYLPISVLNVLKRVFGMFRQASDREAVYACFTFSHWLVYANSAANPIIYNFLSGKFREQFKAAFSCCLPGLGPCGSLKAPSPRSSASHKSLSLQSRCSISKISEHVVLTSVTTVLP
human orexin-2 receptor, sequence (O43614 whole entry): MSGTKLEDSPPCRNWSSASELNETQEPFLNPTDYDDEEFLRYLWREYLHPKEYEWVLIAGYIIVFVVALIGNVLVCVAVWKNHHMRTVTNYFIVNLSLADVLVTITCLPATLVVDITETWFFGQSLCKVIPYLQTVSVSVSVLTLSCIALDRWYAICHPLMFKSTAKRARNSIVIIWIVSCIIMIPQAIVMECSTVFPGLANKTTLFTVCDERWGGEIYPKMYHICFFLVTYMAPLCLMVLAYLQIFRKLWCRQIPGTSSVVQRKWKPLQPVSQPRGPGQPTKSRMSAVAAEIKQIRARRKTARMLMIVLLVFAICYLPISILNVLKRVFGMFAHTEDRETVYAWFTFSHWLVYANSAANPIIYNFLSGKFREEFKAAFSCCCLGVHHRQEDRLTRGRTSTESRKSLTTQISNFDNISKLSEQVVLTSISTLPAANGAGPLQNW

| IC50 (human orexin-2 receptor) | IC50 (human orexin-1 receptor) | SMILES |
| --- | --- | --- |
| 9 nM | 70 nM | C=C1C[C@@H](c2nc3c(C)cccc3[nH]2)N(C(=O)c2nc(C)sc2-c2ccccc2)C1 [Ex. 6.40] |
| 12 nM | 7 nM | Cc1nc(C(=O)N2CCC[C@@]2(C)c2nc3c(C)c(C)c(Br)cc3[nH]2)c(-c2ccc(C)c(C)c2)s1 [Ex. 5.273] |
| 41 nM | 35 nM | COc1ccc(-c2ccc(C(F)(F)F)cc2)c(C(=O)N2CCC[C@@]2(C)c2nc3ccc(Cl)c(C)c3[nH]2)c1F [Ex. 5.305] |
| 4 nM | 21 nM | C=C1C[C@@H](c2nc3ccc(Cl)c(C)c3[nH]2)N(C(=O)c2nc(C)sc2-c2ccc(F)cc2)C1 [Ex. 6.118] |
| 77 nM | 1060 nM | C=C1C[C@@H](c2nc3cccc(C)c3[nH]2)N(C(=O)c2nc(C)ccc2-n2cccn2)C1 [Ex. 6.105] |
| 1000 nM | 54 nM | Cc1ccc(C(=O)N2CCC[C@@]2(C)c2nc3cc(OC(F)(F)F)ccc3[nH]2)c(-c2cccnc2)c1 [Ex. 5.241] |
| 49 nM | 37 nM | COc1ccc(-c2ccc(C)cc2C(=O)N2CCC[C@@]2(C)c2nc3cc(C(F)(F)F)c(Cl)cc3[nH]2)cc1 [Ex. 5.150] |
| 173 nM | 26 nM | Cc1ccc(-c2ccccc2)c(C(=O)N2CCC[C@@]2(C)c2nc3cc(OC(F)(F)F)ccc3[nH]2)c1 [Ex. 5.236] |
| 13 nM | 2 nM | Cc1cc(C(=O)N2CCC[C@@]2(C)c2nc3cc(C(F)(F)F)ccc3[nH]2)c(-n2nccn2)cc1C [Ex. 5.170] |
| 40 nM | 20 nM | Cc1ccc(-c2ccccc2F)c(C(=O)N2CCC[C@@]2(C)c2nc3cc(C(F)(F)F)c(Cl)cc3[nH]2)c1 [Ex. 5.151] |
| 4 nM | 41 nM | C=C1C[C@@H](c2nc3cc(C)c(C)cc3[nH]2)N(C(=O)c2cc(Cl)ccc2-n2nccn2)C1 [Ex. 6.193] |
| 6 nM | 5 nM | CCn1c([C@]2(C)CCCN2C(=O)c2nc(C)sc2-c2cccc(Cl)c2)nc2c(C)cccc21 [Ex. 7.6] |
| 1 nM | 5 nM | C=C1C[C@@H](c2nc3c(Br)cccc3[nH]2)N(C(=O)c2nc(C)sc2-c2ccc(C)c(C)c2)C1 [Ex. 6.50] |
| 4 nM | 1 nM | Cc1ccc(-n2nccn2)c(C(=O)N2CCC[C@@]2(C)c2nc3c(C)c(Cl)ccc3n2C)n1 [Ex. 7.18] |
| 51 nM | 389 nM | C=C1C[C@@H](c2nc3cccc(Cl)c3[nH]2)N(C(=O)c2cc(C)ccc2-n2nccn2)C1 [Ex. 6.69] |
| 126 nM | 84 nM | COc1cc(C(=O)N2CCC[C@@]2(C)c2nc3cc(F)c(Br)cc3[nH]2)c(-n2nccn2)cc1OC [Ex. 5.125] |
| 31 nM | 6 nM | Cc1ccc(-n2nccn2)c(C(=O)N2CCC[C@@]2(C)c2nc3c(Cl)cc(C(F)(F)F)cc3[nH]2)c1 [Ex. 5.14] |
| 704 nM | 92 nM | C[C@@]1(c2nc3cc(C(F)(F)F)ccc3[nH]2)CCCN1C(=O)c1cc(C(F)(F)F)ccc1-n1nccn1 [Ex. 5.172] |
| 68 nM | 26 nM | Cc1c(Cl)ccc2[nH]c([C@]3(C)CCCN3C(=O)c3c(F)cccc3-c3ncccn3)nc12 [Ex. 5.222] |
| 199 nM | 91 nM | Cc1ccc(-c2cccc(C)c2C)c(C(=O)N2CCC[C@@]2(C)c2nc3cc(C(F)(F)F)ccc3[nH]2)c1 [Ex. 5.196] |

The next lines start with the compound.

| SMILES | IC50 (human orexin-2 receptor) | IC50 (human orexin-1 receptor) |
| --- | --- | --- |
| Cc1cccc(-c2sc(C)nc2C(=O)N2CC[C@H](C)[C@H]2c2nc3cc(C(F)(F)F)ccc3[nH]2)c1 [Ex. 4.138] | 1340 nM | 2 nM |
| CSc1cccc2nc([C@@H]3CCCN3C(=O)c3nc(C)sc3-c3cc(F)cc(F)c3)[nH]c12 [Ex. 1.71] | 162 nM | 95 nM |
| CO[C@H]1CN(C(=O)c2cc(C)ccc2-n2nccn2)[C@](C)(c2nc3c(C)c(Cl)ccc3[nH]2)C1 [Ex. 3.30] | 2 nM | 2 nM |
| Cc1nc(C(=O)N2CC[C@H](C)[C@H]2c2nc3c(C(F)(F)F)cccc3[nH]2)c(-c2ccc(Br)cc2)s1 [Ex. 4.151] | 185 nM | 5 nM |
| CO[C@H]1CN(C(=O)c2nc(C)sc2-c2cccc(Cl)c2)C(C)(c2nc3c(C)cccc3[nH]2)C1 (stereo partly shown) [Ex. 3.28] | 19 nM | 10 nM |
| Cc1ccc(-c2ccccc2C(=O)N2CC[C@H](C)[C@H]2c2nc3cc(Cl)c(C)cc3[nH]2)cc1 [Ex. 4.77] | 790 nM | 5 nM |
| Cc1nc(C(=O)N2CC[C@H](C)[C@H]2c2nc3cc(C(F)(F)F)ccc3[nH]2)c(-c2ccc(Br)cc2)s1 [Ex. 4.142] | 2160 nM | 6 nM |
| Cc1nc(C(=O)N2CC[C@H](C)[C@H]2c2nc3c(C(F)(F)F)cccc3[nH]2)c(-c2ccc(C)c(C)c2)s1 [Ex. 4.152] | 40 nM | 2 nM |
| Cc1nc(C(=O)N2CCCC2c2nc3cc(OC(F)(F)F)ccc3[nH]2)c(-c2ccccc2)s1 (stereo not shown) [Ex. 1.132] | 614 nM | 90 nM |
| Cc1nc(C(=O)N2CCCC2c2nc3c(C(F)(F)F)cc(C(F)(F)F)cc3[nH]2)c(-c2ccccc2)s1 (stereo not shown) [Ex. 1.118] | 364 nM | 191 nM |
| CSc1ccc2nc([C@@H]3CCCN3C(=O)c3cc(F)ccc3-n3nccn3)[nH]c2c1 [Ex. 1.147] | 24 nM | 685 nM |
| Cc1ccc(-n2nccn2)c(C(=O)N2CC[C@H](C)[C@H]2c2nc3cccc(C)c3[nH]2)c1 [Example 4.1, (5-methyl-2-(2H-1,2,3-triazol-2-yl)phenyl)((2S,3S)-3-methyl-2-(7-methyl-1H-benzo[d]imidazol-2-yl)pyrrolidin-1-yl)methanone] | 778 nM | 29 nM |
| Cc1ccc(-n2nccn2)c(C(=O)N2C[C@@H](F)C[C@H]2c2nc3ccc(Cl)c(C)c3[nH]2)c1 [Example 2.1, ((2S,4S)-2-(6-chloro-7-methyl-1H-benzo[d]imidazol-2-yl)-4-fluoropyrrolidin-1-yl)(5-methyl-2-(2H-1,2,3-triazol-2-yl)phenyl)methanone] | 53 nM | 56 nM |
| Cc1nc(C(=O)N2CC[C@H](C)[C@H]2c2nc3c(C(C)C)cccc3[nH]2)c(-c2cccc(Cl)c2)s1 [Ex. 4.25] | 441 nM | 4 nM |
| CO[C@@H]1C[C@@H](c2nc3ccc(Cl)c(C)c3[nH]2)N(C(=O)c2cc(F)ccc2-n2nccn2)C1 [Ex. 3.18] | 4 nM | 97 nM |
| Cc1nc(C(=O)N2CC[C@H](C)[C@H]2c2nc3c(C)cc(Cl)cc3[nH]2)c(-c2ccc(Cl)cc2)s1 [Ex. 4.94] | 543 nM | 3 nM |
| COc1cccc(-c2sc(C)nc2C(=O)N2CC[C@H](C)[C@H]2c2nc3cc(C(F)(F)F)ccc3[nH]2)c1 [Ex. 4.137] | 3090 nM | 5 nM |
| Cc1ccc(-c2nc(C)sc2C(=O)N2CC[C@H](C)[C@H]2c2nc3cc(C)c(C)cc3[nH]2)cc1 [Ex. 4.88] | 182 nM | 11 nM |
| Cc1ccc(-n2nccn2)c(C(=O)N2CC[C@H](C)[C@H]2c2nc3c(C)c(C)ccc3[nH]2)c1 [Ex. 4.37] | 988 nM | 24 nM |
| CSc1cccc2nc([C@@H]3CCCN3C(=O)c3cncnc3-c3cc(Cl)cc(Cl)c3)[nH]c12 [Ex. 1.89] | 180 nM | 39 nM |
| CSc1cccc2nc([C@@H]3CCCN3C(=O)c3cc(Cl)ccc3-n3nccn3)[nH]c12 [Ex. 1.165] | 9 nM | 76 nM |
